One block for each compound: values may come before it.
Experiments:
[1] = Apparent pKa of LNP formulations (TNS fluorescence assay); assay type: physicochemical; settings: LNP formulation, TNS assay (Table 2)
Method: As reported in literature, the apparent pKa of LNP formulations correlates with the delivery efficiency of LNPs for nucleic acids in vivo. The apparent pKa of each formulation was determined using an assay based on fluorescence of 2-(p-toluidino)-6-napthalene sulfonic acid (TNS). LNP formulations comprising of cationic lipid/DSPC/cholesterol/DMG-PEG (50/10/38.5/1.5 mol %) in PBS were prepared as described above. TNS was prepared as a 300 μM stock solution in distilled water. LNP formulations were diluted to 0.1 mg/mL total lipid in 3 mL of buffered solutions containing 50 mM sodium citrate, 50 mM sodium phosphate, 50 mM sodium borate, and 30 mM sodium chloride where the pH ranged from 3 to 9. An aliquot of the TNS solution was added to give a final concentration of […] and following vortex mixing fluorescence intensity was measured at room temperature in a Molecular Devices Spectramax iD3 spectrometer using excitation and mission wavelengths of 325 nm and 435 nm. A sigmoidal best fit analysis was applied to the fluorescence data and the pKa value was measured as the pH giving rise to half-maximal fluorescent intensity.

[2] = test system: human erythropoietin (hEPO) mRNA expression; assay: Animal Study 1: hEPO mRNA LNPs i.v. in mice, serum EPO by ELISA; assay type: in vivo; settings: female ICR mice, 0.5 mg/kg tail vein injection, blood e.g. 6 hours post administration; relative to MC3 LNP
Method: Lipid nanoparticles comprising compounds in the following table encapsulating human erythropoietin (hEPO) mRNA were systemically administered to 6-8 week old female ICR mice (Xipuer-Bikai, Shanghai) at 0.5 mg/kg dose by tail vein injection and mice blood were sampled at specific time points (e.g., 6 hours) post administration. In addition to the aforementioned tested groups, lipid nanoparticles comprising dilinoleylmethyl-4-dimethylaminobutyrate (DLin-MC3-DMA, usually abbreviated to MC3) encapsulating hEPO mRNA were similarly administered at the same dose to age and gender comparative groups of mice as a positive control.
Mice were euthanized by CO2 overdoses after the last sampling time point. Serum were separated from total blood by centrifugation at 5000 g for 10 minutes at 4 T, snap-frozen and stored at −80 T for analysis. ELISA assay were carried out using a commercial kit (DEP00, R&D systems) according to manufacturer's instructions.
Characteristics of tested lipid nanoparticles, including EPO expression levels over MC3 measured from the tested group are listed in the table below.

[3] = Lipid nanoparticle size and polydispersity by dynamic light scattering; assay type: physicochemical; settings: LNP comprising the compound, hEPO mRNA; for Size (nm): cationic lipid/DSPC/cholesterol/PEG-lipid 50:10:38.5:1.5
Method: (§1) Briefly, a cationic lipid provided herein, DSPC, cholesterol, and PEG-lipid were solubilized in ethanol at a molar ratio of 50:10:38.5:1.5, and mRNA were diluted in 10 to 50 mM citrate buffer, pH=4. The LNPs were prepared at a total lipid to mRNA weight ratio of approximately 10:1 to 30:1 by mixing the ethanolic lipid solution with the aqueous mRNA solution at a volume ratio of 1:3 using a microfluidic apparatus, total flow rate ranging from 9-30 mL/min. Ethanol were thereby removed and replaced by DPBS using dialysis. Finally, the lipid nanoparticles were filtered through a 0.2 μm sterile filter.
(§2) Lipid nanoparticle size were determined by dynamic light scattering using a Malvern Zetasizer Nano ZS (Malvern UK) using a 173° backscatter detection mode. The encapsulation efficiency of lipid nanoparticles were determined using a Quant-it Ribogreen RNA quantification assay kit (Thermo Fisher Scientific, UK) according to the manufacturer's instructions.

[4] = Encapsulation efficiency of lipid nanoparticles (Quant-it Ribogreen RNA assay); assay type: physicochemical; settings: LNP comprising the compound, hEPO mRNA
Method: as §1, §2

Structure (SMILES): CCCCCCCCC(CCCCCC)CNC(=O)CCCCCN(CCO)CCCCC(COC(=O)C(CCCCCC)CCCCCCCC)COC(=O)C(CCCCCC)CCCCCCCC (centres unmarked) [Compound 26]
Apparent pKa [1]: 6.332
EPO expression over MC3 [2]: C (≥0.1 and <1)
Polydispersity [3]: 0.01
Size (nm) [3]: 55.11 nm
Encapsulation efficiency [4]: 85.33%

Structure (SMILES): CCCCCCCC(=O)OCC(CCCCN(CCCCCNc1c(N(C)C)c(=O)c1=O)CCCCC(COC(=O)CCCCCCC)COC(=O)CCCCCCC)COC(=O)CCCCCCC [Compound 28]
Apparent pKa [1]: 6.593
EPO expression over MC3 [2]: C (≥0.1 and <1)
Polydispersity [3]: 0.077
Size (nm) [3]: 68.48 nm
Encapsulation efficiency [4]: 89.90%

Structure (SMILES): CCCCCCCCCCCCCCCCCC(=O)OCCCCCCN(CCCCC(COC(=O)CCCCCCC)COC(=O)CCCCCCC)C1CCC(O)CC1 (centres unmarked) [Compound 36]
Apparent pKa [1]: 6.867
EPO expression over MC3 [2]: C (≥0.1 and <1)
Polydispersity [3]: 0.1156
Size (nm) [3]: 78.92 nm
Encapsulation efficiency [4]: 85.90%

Structure (SMILES): CCCCC/C=C\C/C=C\CCCCCCCC(=O)OCCCCCCN(CCCCC(COC(=O)CCCCCCC)COC(=O)CCCCCCC)C1CCC(O)CC1 (centres unmarked) [Compound 37]
Apparent pKa [1]: 6.69
EPO expression over MC3 [2]: A (≥2)
Polydispersity [3]: 0.005279
Size (nm) [3]: 93.13 nm
Encapsulation efficiency [4]: 88.34%

Structure (SMILES): CCCCCCCC/C=C\CCCCCCCC(=O)OCCCCCCN(CCCCC(COC(=O)CCCCCCC)COC(=O)CCCCCCC)C1CCC(O)CC1 (centres unmarked) [Compound 38]
Apparent pKa [1]: 6.799
EPO expression over MC3 [2]: B (≥1 and <2)
Polydispersity [3]: 0.06385
Size (nm) [3]: 100.3 nm
Encapsulation efficiency [4]: 87.69%

Structure (SMILES): CCCCCCCC/C=C\CCCCCCCC(=O)OCCCCCCN(CCCCC(COC(=O)CCCCCCC)COC(=O)CCCCCCC)C1CC(O)C1 (centres unmarked) [Compound 39]
Apparent pKa [1]: 6.801
EPO expression over MC3 [2]: C (≥0.1 and <1)
Polydispersity [3]: 0.002
Size (nm) [3]: 84.01 nm
Encapsulation efficiency [4]: 89.27%

Structure (SMILES): CCCCC/C=C\C/C=C\CCCCCCCC(=O)OCCCCCCN(CCCCC(COC(=O)CCCCCCC)COC(=O)CCCCCCC)CCCNc1c(N(C)C)c(=O)c1=O [Compound 42]
Apparent pKa [1]: 6.657
EPO expression over MC3 [2]: C (≥0.1 and <1)
Polydispersity [3]: 0.0478
Size (nm) [3]: 77.38 nm
Encapsulation efficiency [4]: 95.23%

Structure (SMILES): CCCCCCCCC(CCCCCC)CNC(=O)CCCCCN(CCCCC(COC(=O)CCCCCCC)COC(=O)CCCCCCC)CC1(CO)CCCC1 (centres unmarked) [Compound 62]
Apparent pKa [1]: 5.299
EPO expression over MC3 [2]: D (<0.1)
Polydispersity [3]: 0.031
Size (nm) [3]: 71.06 nm
Encapsulation efficiency [4]: 88.45%

Now from value to compound, other results behind:

Apparent pKa [1]: 6.404
Polydispersity [3]: 0.073
Size (nm) [3]: 64.02 nm
Encapsulation efficiency [4]: 91.59%
Structure (SMILES): CCCCCCCC(=O)OCC(CCCCN(CCCCC(COC(=O)CCCCCCC)COC(=O)CCCCCCC)CCCNc1c(N(C)C)c(=O)c1=O)COC(=O)CCCCCCC [Compound 27]
EPO expression over MC3 [2]: A (≥2)

Apparent pKa [1]: 6.513
Polydispersity [3]: 0.031
Size (nm) [3]: 80.75 nm
Encapsulation efficiency [4]: 86.98%
Structure (SMILES): CCCCCCCC(=O)OCC(CCCCCCN(CCCCCO)CCCCCCC(COC(=O)CCCCCCC)COC(=O)CCCCCCC)COC(=O)CCCCCCC [Compound 29]
EPO expression over MC3 [2]: A (≥2)

Apparent pKa [1]: 6.221
Polydispersity [3]: 0.073
Size (nm) [3]: 72.36 nm
Encapsulation efficiency [4]: 88.17%
Structure (SMILES): CCCCCCCC(=O)OCC(CCCCN(CCCCC(COC(=O)CCCCCCC)COC(=O)CCCCCCC)CCCNc1c(N(CC)CC)c(=O)c1=O)COC(=O)CCCCCCC [Compound 31]
EPO expression over MC3 [2]: A (≥2)

Apparent pKa [1]: 6.34
Polydispersity [3]: 0.04761
Size (nm) [3]: 67.6 nm
Encapsulation efficiency [4]: 89.70%
Structure (SMILES): CCCCCCCC(=O)OCC(CCCCN(CCCCC(COC(=O)CCCCCCC)COC(=O)CCCCCCC)CCCNc1c(N(C)CC)c(=O)c1=O)COC(=O)CCCCCCC [Compound 34]
EPO expression over MC3 [2]: A (≥2)

Apparent pKa [1]: 6.138
Polydispersity [3]: 0.05652
Size (nm) [3]: 71.02 nm
Encapsulation efficiency [4]: 89.19%
Structure (SMILES): CCCCCCCC(=O)OCC(CCCCN(CCCCC(COC(=O)CCCCCCC)COC(=O)CCCCCCC)CCCNc1c(N(C)CCC)c(=O)c1=O)COC(=O)CCCCCCC [Compound 35]
EPO expression over MC3 [2]: A (≥2)

Apparent pKa [1]: 6.653
Polydispersity [3]: 0.057
Size (nm) [3]: 64.77 nm
Encapsulation efficiency [4]: 89.21%
Structure (SMILES): CCCCCCCC(=O)OCC(CCCCN(CCCCC(COC(=O)CCCCCCC)COC(=O)CCCCCCC)[C@H]1C[C@@H](O)C1)COC(=O)CCCCCCC [Compound 43]
EPO expression over MC3 [2]: A (≥2)

Apparent pKa [1]: 6.767
Polydispersity [3]: 0.039
Size (nm) [3]: 91.46 nm
Encapsulation efficiency [4]: 89.99%
Structure (SMILES): CCCCCCCC(=O)OCC(CCCCN(CCCCC(COC(=O)CCCCCCC)COC(=O)CCCCCCC)[C@@H]1CC[C@H](O)C1)COC(=O)CCCCCCC [Compound 47]
EPO expression over MC3 [2]: A (≥2)

Apparent pKa [1]: 6.143
Polydispersity [3]: 0.027
Size (nm) [3]: 92.53 nm
Encapsulation efficiency [4]: 84.12%
Structure (SMILES): CCCCCCCC(=O)OCC(CCCCN(CCCCC(COC(=O)CCCCCCC)COC(=O)CCCCCCC)[C@H]1C=C[C@@H](CO)C1)COC(=O)CCCCCCC [Compound 48]
EPO expression over MC3 [2]: A (≥2)

Apparent pKa [1]: 6.679
Polydispersity [3]: 0.109
Size (nm) [3]: 63.7 nm
Encapsulation efficiency [4]: 94.90%
Structure (SMILES): CCCCCCCC(=O)OCC(CCCCN(CCCCC(COC(=O)CCCCCCC)COC(=O)CCCCCCC)C1CC(CO)C1)COC(=O)CCCCCCC (centres unmarked) [Compound 54]
EPO expression over MC3 [2]: B (≥1 and <2)

Apparent pKa [1]: 6.633
Polydispersity [3]: 0.066
Size (nm) [3]: 168.4 nm
Encapsulation efficiency [4]: 72.86%
Structure (SMILES): CCCCCCCC(=O)OCC(CCCCN(CCCCC(COC(=O)CCCCCCC)COC(=O)CCCCCCC)[C@H]1CC[C@H](CO)CC1)COC(=O)CCCCCCC [Compound 59]
EPO expression over MC3 [2]: A (≥2)

Apparent pKa [1]: 7.32
Polydispersity [3]: 0.066
Size (nm) [3]: 72.95 nm
Encapsulation efficiency [4]: 91.26%
Structure (SMILES): CCCCCCCC(=O)OCC(CCCCN(CCCCC(COC(=O)CCCCCCC)COC(=O)CCCCCCC)C1CC(CO)(CO)C1)COC(=O)CCCCCCC [Compound 61]
EPO expression over MC3 [2]: C (≥0.1 and <1)

Source: US20240238212A1, “LIPID COMPOUNDS AND LIPID NANOPARTICLE COMPOSITIONS” (SUZHOU ABOGEN BIOSCIENCES CO., LTD., priority 2022, published 2024)
